Holding throughout (type): functional
One experiment is filed under the species Homo sapiens. Description: The compound was tested in vitro for its anti-platelet activity against human platelets in presence of ADP.
For experiment [1], the system named is Canis familiaris. The experiment in a line: Tested ex vivo for its inhibitory activity at 6 hr against dogs after oral administration of 3.2 mg/Kg dose to evaluate bioavailability. Particulars: Canis lupus familiaris.
Experiment [2] deals with Canis familiaris. The experiment in a line: Tested ex vivo for its inhibitory activity at 3 hr against dogs after oral administration of 1 mg/Kg dose to evaluate bioavailability. The note with it: Canis lupus familiaris.
Experiment [3] concerns Canis familiaris. Description: Tested ex vivo for its inhibitory activity at 3 hr against dogs after oral administration of 3.2 mg/Kg dose to evaluate bioavailability. The note with it: Canis lupus familiaris.
Experiment [4] deals with Cavia porcellus. The experiment in a line: Tested ex vivo for its inhibitory activity at 1 hr against guinea pig after oral administration of 1 mg/Kg dose to evaluate bioavailability.
Experiment [5] concerns Cavia porcellus. The experiment in a line: Tested ex vivo for its inhibitory activity at 2 hr against guinea pig after oral administration of 0.32 mg/Kg dose to evaluate bioavailability.
Experiment [6] relates to Cavia porcellus. Description: Tested ex vivo for its inhibitory activity at 3 hr against guinea pig after oral administration of 1 mg/Kg dose to evaluate bioavailability.
Experiment [7] deals with Rattus norvegicus. Description: Tested ex vivo for its inhibitory activity at 2 h against rats after oral administration of 3.2 mg/Kg dose to evaluate bioavailability.
Experiment [8] relates to Rattus norvegicus. Description: Tested ex vivo for its inhibitory activity at 1 h against rats after oral administration of 3.2 mg/Kg dose to evaluate bioavailability.
Experiment [9] has as its system Rattus norvegicus. The experiment in a line: Tested ex vivo for its inhibitory activity at 0.5 hr against rats after oral administration of 3.2 mg/Kg dose to evaluate bioavailability.
Experiment [10] concerns Cavia porcellus. The experiment in a line: Tested ex vivo for its inhibitory activity at 1 hr against guinea pig after oral administration of 0.1 mg/Kg dose to evaluate bioavailability.
Experiment [11] deals with Cavia porcellus. Description: Tested ex vivo for its inhibitory activity at 2 hr against guinea pig after oral administration of 1 mg/Kg dose to evaluate bioavailability.
In experiment [12] the test system is Cavia porcellus. The experiment in a line: Tested ex vivo for its inhibitory activity at 1 hr against guinea pig after oral administration of 0.32 mg/Kg dose to evaluate bioavailability.
Experiment [13] relates to Canis familiaris. Description: Tested ex vivo for its inhibitory activity at 1 hr against dogs after oral administration of 3.2 mg/Kg dose to evaluate bioavailability. The note with it: Canis lupus familiaris.
Experiment [14] deals with Canis familiaris. Description: Tested ex vivo for its inhibitory activity at 1 hr against dogs after oral administration of 1 mg/Kg dose to evaluate bioavailability. The note with it: Canis lupus familiaris.
For experiment [15], the system named is Canis familiaris. The experiment in a line: Tested ex vivo for its inhibitory activity at 8 hr against dogs after oral administration of 10 mg/Kg dose to evaluate bioavailability. Particulars: Canis lupus familiaris.
For experiment [16], the system named is Canis familiaris. The experiment in a line: Tested ex vivo for its inhibitory activity at 8 hr against dogs after oral administration of 3.2 mg/Kg dose to evaluate bioavailability. Particulars: Canis lupus familiaris.
For experiment [17], the species on record is Canis familiaris. Description: The compound was tested in vitro for its anti-platelet activity against dog platelets in presence of ADP. Particulars: Canis lupus familiaris.
Experiment [18] deals with Canis familiaris. Description: Tested ex vivo for its inhibitory activity at 6 hr against dogs after oral administration of 10 mg/Kg dose to evaluate bioavailability. Particulars: Canis lupus familiaris.
Experiment [19] in a line: The ratio of anti-platelet activity against dog platelets to that of human platelets was determined.
Experiment [20] has as its system Canis familiaris. Description: Tested ex vivo for its inhibitory activity at 3 hr against dogs after oral administration of 10 mg/Kg dose to evaluate bioavailability. Particulars: Canis lupus familiaris.
The species entered for experiment [21] is Rattus norvegicus. Description: The compound was tested for its stability in intestinal juice of rats after 2 h.
The species entered for experiment [22] is Rattus norvegicus. Description: The compound was tested for its stability in intestinal juice of rats after 5 h.
For experiment [23], the species on record is Rattus norvegicus. The experiment in a line: The compound was tested for its stability in intestinal juice of rats after 0 h.
For experiment [24], the system named is Canis familiaris. The experiment in a line: Tested ex vivo for its inhibitory activity at 1 hr against dogs after oral administration of 10 mg/Kg dose to evaluate bioavailability. Particulars: Canis lupus familiaris.
For experiment [25], the system named is Cavia porcellus. The experiment in a line: Tested ex vivo for its inhibitory activity at 6 hr against guinea pig after oral administration of 3.2 mg/Kg dose to evaluate bioavailability.
For experiment [26], the species on record is Rattus norvegicus. The experiment in a line: The compound was tested for its stability in intestinal juice of rats after 7 h.
For experiment [27], the species on record is Rattus norvegicus. The experiment in a line: Tested for its stability in intestinal juice of rats after 0 h.
For experiment [28], the system named is Rattus norvegicus. Description: Tested ex vivo for its inhibitory activity at 0.5 hr against rats after oral administration of 20 mg/Kg dose to evaluate bioavailability.
For experiment [29], the species on record is Rattus norvegicus. Description: Tested for its stability in intestinal juice of rats after 2 h.
Experiment [30] is filed under the species Rattus norvegicus. The experiment in a line: Tested for its stability in intestinal juice of rats after 5 h.
In experiment [31] the test system is Cavia porcellus. Description: Tested ex vivo for its inhibitory activity at 1 hr against guinea pig after oral administration of 3.2 mg/Kg dose to evaluate bioavailability.
Experiment [32] concerns Rattus norvegicus. The experiment in a line: Tested ex vivo for its inhibitory activity at 0.5 hr against rats after oral administration of 10 mg/Kg dose to evaluate bioavailability.
The test system of experiment [33] is Rattus norvegicus. Description: Tested ex vivo for its inhibitory activity at 2 hr against rats after oral administration of 20 mg/Kg dose to evaluate bioavailability.
The test system of experiment [34] is Rattus norvegicus. Description: Tested ex vivo for its inhibitory activity at 2 hr against rats after oral administration of 10 mg/Kg dose to evaluate bioavailability.
Experiment [35] has as its system Canis familiaris. The experiment in a line: Tested ex vivo for its inhibitory activity at 1 hr against dogs after oral administration of 32 mg/Kg dose to evaluate bioavailability. Particulars: Canis lupus familiaris.
Experiment [36] relates to Cavia porcellus. The experiment in a line: Tested ex vivo for its inhibitory activity at 3 hr against guinea pig after oral administration of 3.2 mg/Kg dose to evaluate bioavailability.
For experiment [37], the system named is Rattus norvegicus. Description: Tested ex vivo for its inhibitory activity at 1 hr against rats after oral administration of 20 mg/Kg dose to evaluate bioavailability.
Experiment [38] has as its system Rattus norvegicus. The experiment in a line: Tested ex vivo for its inhibitory activity at 1 hr against rats after oral administration of 10 mg/Kg dose to evaluate bioavailability.
Experiment [39] relates to Canis familiaris. The experiment in a line: Tested ex vivo for its inhibitory activity at 3 hr against dogs after oral administration of 32 mg/Kg dose to evaluate bioavailability. The note with it: Canis lupus familiaris.
For experiment [40], the system named is Canis familiaris. The experiment in a line: Tested ex vivo for its inhibitory activity at 2 h against dogs after oral administration of 32 mg/Kg dose to evaluate bioavailability. Particulars: Canis lupus familiaris.
For experiment [41], the system named is Canis familiaris. The experiment in a line: Tested ex vivo for its inhibitory activity at 2 hr against dogs after oral administration of 3.2 mg/Kg dose to evaluate bioavailability. The note with it: Canis lupus familiaris.

As for `CC(C)Oc1ccc(CCNC(=O)[C@H](CC(=O)O)NC(=O)CCCOc2ccc(C(=N)N)cc2)cc1`, the IC50 in the experiment listed under Homo sapiens was 370 nM.
Consider `CCOc1ccc(CCNC(=O)[C@H](CC(=O)O)NC(=O)CCCOc2ccc(C(=N)N)cc2)cc1`, for which, in the experiment filed under Homo sapiens, the IC50 amounted to 340 nM.
Regarding `CC(C)[C@H](NC(=O)[C@H](CC(=O)O)NC(=O)CCCOc1ccc(C(=N)N)cc1)C(=O)N1CCS(=O)(=O)CC1`, the inhibition in vivo at 3.2 mg/kg in the experiment on Canis familiaris [1] worked out at 46%; in the experiment with Canis familiaris [3], 65%; in the experiment on Rattus norvegicus [7], 44%; in the experiment with Rattus norvegicus [8] it was 97%; in the experiment with Rattus norvegicus [9], 76%; in the experiment with Canis familiaris [13] it was 85%. Besides, the inhibition in vivo at 3.2 mg/kg in the experiment on Canis familiaris [16] amounted to 0%. The inhibition in vivo at 1 mg/kg in the experiment with Canis familiaris [2] came to 11%; in the experiment on Cavia porcellus [4], 100%; in the experiment on Cavia porcellus [6], 21%; with Cavia porcellus [11] it was 59%; in the experiment with Canis familiaris [14] it was 40%. The inhibition in vivo at 0.32 mg/kg came out at 50% in the experiment on Cavia porcellus [5] and 69% in the experiment with Cavia porcellus [12]. For the same compound, the inhibition in vivo at 0.1 mg/kg in the experiment with Cavia porcellus [10] is 49%. The inhibition in vivo at 10 mg/kg with Canis familiaris [15] stood at 45%; in the experiment on Canis familiaris [18], 65%; in the experiment with Canis familiaris [20], 80%. In addition, the IC50 was determined as 110 nM in the experiment listed under Canis familiaris [17] and 30 nM in the experiment filed under Homo sapiens. Moreover, the Ratio in experiment [19] amounted to 3.7.
Regarding `COc1ccc(CCNC(=O)[C@H](CC(=O)O)NC(=O)CCCOc2ccc(C(=N)N)cc2)cc1`, the Remains in the experiment listed under Rattus norvegicus [21] was 100.5%; in the experiment filed under Rattus norvegicus [22], 105.7%; in the experiment filed under Rattus norvegicus [23] it was 100%. Further, the IC50 in the experiment filed under Homo sapiens was determined as 440 nM.
For the compound `CC(C)[C@H](NC(=O)[C@H](CC(=O)O)NC(=O)CCCOc1ccc(C(=N)N)cc1)C(=O)NC1CCCCC1`, in the experiment listed under Homo sapiens, the IC50 turned out to be 210 nM.
Turning to `CC(C)C(C)NC(=O)[C@H](CC(=O)O)NC(=O)CCCOc1ccc(C(=N)N)cc1` (stereo not given in full), in the experiment filed under Homo sapiens, the IC50 was determined as 1400 nM.
Still for that read-out and setting: the value for `CCN(CC)C(=O)[C@@H](NC(=O)[C@H](CC(=O)O)NC(=O)CCCOc1ccc(C(=N)N)cc1)C(C)C` was 250 nM.
Turning to `CC(C)[C@H](NC(=O)[C@H](CC(=O)O)NC(=O)CCCOc1ccc(C(=N)N)cc1)C(=O)N1CCOCC1`, the inhibition in vivo at 3.2 mg/kg was found to be 20% in the experiment with Canis familiaris [1]; 45% in the experiment with Canis familiaris [3]; 95% in the experiment on Rattus norvegicus [7]; 97% with Rattus norvegicus [8]; 95% in the experiment with Rattus norvegicus [9]; 53% in the experiment on Canis familiaris [13]. In addition, the inhibition in vivo at 10 mg/kg in the experiment with Canis familiaris [24] was determined as 96%; in the experiment with Canis familiaris [18] it was 59%; with Canis familiaris [20], 75%. In addition, the results for the IC50 in the experiment listed under Canis familiaris [17] and in the experiment filed under Homo sapiens were 140 nM and 79 nM, respectively. Moreover, the Ratio in experiment [19] worked out at 1.8.
Regarding `COc1ccc(CCNC(=O)[C@H](CC(=O)O)NC(=O)CCCOc2ccc(C(=N)N)cc2)cc1OC`, the IC50 in the experiment listed under Homo sapiens was found to be 540 nM.
Consider `CC(C)[C@H](NC(=O)[C@H](CC(=O)O)NC(=O)CCCOc1ccc(C(=N)N)cc1)C(N)=O`, for which the results for the Remains in the experiment listed under Rattus norvegicus [21], in the experiment listed under Rattus norvegicus [22] and in the experiment listed under Rattus norvegicus [23] were 105.6%, 107.3% and 100%, respectively. The IC50 in the experiment listed under Homo sapiens was found to be 670 nM.
Take `CC(C)[C@H](NC(=O)[C@H](CC(=O)O)NC(=O)CCCOc1ccc(C(=N)N)cc1)C(=O)O`: the inhibition in vivo at 3.2 mg/kg in the experiment on Cavia porcellus [25] is 19%; in the experiment with Canis familiaris [3], 10%; in the experiment with Cavia porcellus [31] it was 100%; in the experiment on Canis familiaris [13] it was 19%; with Cavia porcellus [36], 64%; with Canis familiaris [41], 30%. Further, the Remains amounted to 61.3% in the experiment filed under Rattus norvegicus [21]; 19.2% in the experiment filed under Rattus norvegicus [26]; 100% in the experiment listed under Rattus norvegicus [27]; 25.6% in the experiment filed under Rattus norvegicus [22]; 63.8% in the experiment listed under Rattus norvegicus [29]; 45.1% in the experiment listed under Rattus norvegicus [30]. In the experiment listed under Rattus norvegicus [23], this compound came in with a Remains of 100%. Also, the inhibition in vivo at 20 mg/kg stood at 45% with Rattus norvegicus [28], 20% in the experiment on Rattus norvegicus [33] and 33% in the experiment with Rattus norvegicus [37]. Further, the figures for the inhibition in vivo at 1 mg/kg with Cavia porcellus [4] and with Cavia porcellus [6] were 99% and 34%, respectively. Also, the inhibition in vivo at 10 mg/kg with Rattus norvegicus [32] worked out at 24%; with Rattus norvegicus [34], 4%; with Rattus norvegicus [38] it was 18%. In the experiment on Cavia porcellus [12], this compound returned an inhibition in vivo at 0.32 mg/kg of 70%. For the same compound, the inhibition in vivo at 32 mg/kg in the experiment on Canis familiaris [35] stood at 58%; in the experiment with Canis familiaris [39], 18%; with Canis familiaris [40], 29%. Further, the IC50 in the experiment filed under Canis familiaris [17] amounted to 380 nM; in the experiment filed under Homo sapiens, 100 nM.
On to `CC(C)[C@H](NC(=O)[C@H](CC(=O)O)NC(=O)CCCOc1ccc(C(=N)N)cc1)C(=O)N1CCN(C)CC1`, for which the IC50 in the experiment listed under Homo sapiens was found to be 180 nM.
`CC(C)CNC(=O)[C@H](CC(=O)O)NC(=O)CCCOc1ccc(C(=N)N)cc1`: the Remains amounted to 80.4% in the experiment filed under Rattus norvegicus [21], 86.2% in the experiment listed under Rattus norvegicus [26], 83.6% in the experiment filed under Rattus norvegicus [22] and 100% in the experiment listed under Rattus norvegicus [23]. Besides, the IC50 in the experiment listed under Homo sapiens was 1200 nM.

In general, IC50 refers to the concentration needed to halve the response being measured. The inhibition in vivo is the share of the control response that was lost under treatment. A higher inhibition in vivo goes with a strong effect.

The record behind these values is ChEMBL document CHEMBL1153685, “Design, synthesis, and evaluation of orally active fibrinogen inhibitors” (Bioorg Med Chem Lett, 1997).
